According to patent US20190290673A1, “COMPOSITIONS AND METHODS FOR THE TREATMENT OF HBV INFECTION” (priority 2016, published 2019):

How the values were obtained:
[1] = tested on: HBV; assay: Efficacy for treatment of HBV infection in transgenic HBV mice (liver HBV DNA, serum HBeAg/HBsAg); type: in vivo; details: per os, qd x 14 d, dosage 'high'; for liver HBV DNA levels: Southern blot hybridization and semi-quantitative PCR, compared to vehicle and ADV; for serum levels of HBeAg / serum levels of HBsAg: relative to vehicle values
Procedure: (§1) The goal of this study was to evaluate the efficacy of exemplary compounds for the treatment of HBV infection in transgenic mice. Homozygous […] transgenic HBV mice (21.6±2.8 g) originally obtained from the laboratory of Dr. Frank Chisari (Scripps Research Institute, LaJolla, Calif.) and derived from founder 1.3.32 were used in this study. Female and male HBV transgenic mice were block-randomized to the treatment groups (Table 1). Compounds of Formula (Ie) and Formula (If) were administered at 0.1 mL/30-gram mouse by oral gavage. Adefovir dipivoxil (ADV) was prepared as a solution of 2 mg/mL in 0.025 M sodium citrate, wherein 0.1 mL was administered by oral gavage (per os, p.o.) per 30 g mouse for a dosage of […].
(§2) Treatment was initiated at day 1. After the last treatment on day 14, necropsy was performed to obtain tissues to assay liver HBV DNA and sera for HBV antigens HBeAg and HBsAg. Weights were obtained on days −1, 1 (day of treatment initiation), 3, 7, and 14. Data were analyzed by one-way analysis of variance. Two animals died due to oral gavage treatment at day 7, one in group 1 and another in group 3. FIGS. 2A-2B show the effect of Formula (Ie) and Formula (If) on liver HBV DNA levels using Southern blot hybridization (FIG. 2A) and semi-quantitative PCR (FIG. 2B) as compared to vehicle and ADV.

[2] = Whole body weight change in transgenic HBV mice; type: in vivo; details: per os, qd x 14 d, dosage 'high'; relative to vehicle values
Procedure: as §1, §2

| Structure (SMILES) | liver HBV DNA levels [1] | serum levels of HBeAg [1] | serum levels of HBsAg [1] | whole body weight change [2] |
| --- | --- | --- | --- | --- |
| CO[C@H]1C(O[P@](=O)(OC[C@H]2O[C@@H](n3cnc4c(N)ncnc43)CC2O)SCOC(=O)OC(C)C)[C@@H](CO)O[C@H]1n1ccc(=O)[nH]c1=O (some centres unmarked) [Formula (Ie)] | lowered HBV DNA levels in the liver | Neither Formula (Ie) or Formula (If) had an effect | Neither Formula (Ie) or Formula (If) had an effect | Neither Formula (Ie) or Formula (If) had an effect |
| CO[C@H]1C(O[P@@](=O)(OC[C@H]2O[C@@H](n3cnc4c(N)ncnc43)CC2O)SCOC(=O)OC(C)C)[C@@H](CO)O[C@H]1n1ccc(=O)[nH]c1=O (some centres unmarked) [Formula (If)] | lowered HBV DNA levels in the liver | Neither Formula (Ie) or Formula (If) had an effect | Neither Formula (Ie) or Formula (If) had an effect | Neither Formula (Ie) or Formula (If) had an effect |
